# Source: patent publication US20060088502A1, “Drug for reducing side effects in ribavirin interferon combination therapy” (priority 2003, published 2006)
# Marks after values point to notes of the source that are not given here.
# System: patients with chronic hepatitis C who had developed anemia due to ribavirin/IFN α combination therapy
# Type: in vivo, human
# Conditions: average of 6 cases; p < 0.05 vs. before EPA administration (10.8 g/dL)
# Description: After the onset of anemia, each patient received 600 mg of EPA-E (trade name: Epadel, manufactured by Mochida Pharmaceutical Co., Ltd.) three times a day by oral administration every after meal for 2 months. Depending on the disease cases, the time of starting the administration of EPA-E varied within the range from 1 to 4 months after the start of administration of ribavirin/IFN α. In the ribavirin/IFN α combination therapy, ribavirin (trade name: Rebetol, manufactured by Schering-Plough Corporation) was orally administered to each patient of over 60 kg in body weight at a dose of 400 mg every after morning meal and every after evening meal as well, and to each patient of 60 kg or less at a dose of 200 mg every after morning meal and 400 mg every after evening meal. Simultaneously, 6 million IU a day of IFN α-2b (trade name: Intron A, manufactured by Schering-Plough Corporation) was intramuscularly administered everyday for two weeks, followed by intermittent administration of three times a week for 22 weeks.
smiles,measurement,value
"CC/C=C\C/C=C\C/C=C\C/C=C\C/C=C\CCCC(=O)OCC [EPA, eicosapentaenoic acid ethyl ester]","Hemoglobin level, average, after EPA administration for one month",11.4* g/dL
same,"Hemoglobin level, average, after EPA administration for two months",11.5* g/dL
